According to EP0417790B1, “S-triazolo[3,4-i]purine derivatives” (Kyowa Hakko Kogyo Co., Ltd., priority 1989, dated 1991):
Read-outs that look alike come from different tables or passages of the source.

Legend:
Hartley male guinea pigs = experiment: Experimental asthma (collapse time after antigen aerosol); format: in vivo; details: 1 hour before 1.5% EWA aerosol, n=3-10 mean±S.E.M., control 254 ± 18
Procedure: Guinea pigs were passively sensitized as follows. Hartley male guinea pigs weighing 350 to 500 g were intraperitoneally injected with 1 ml of rabbit anti-egg alubmin (EWA) serum prepared by the method of Koda et al. [Folia pharmacol., Japon, 66, 237 (1970)]. The animals were treated with intraperitoneal injection of diphenhydramine (20 mg/kg) and propranolol (5 mg/kg), 30 minutes before administration of test compounds. 17 hours after the sensitization, the test compounds (50 mg/kg or 5 mg/kg) or saline (control) were orally administrated to sensitized animals. After one hour from the administration of the test compounds, the guinea pigs were placed in plastic observation box and were exposed to an aerosal antigen of 1.5% EWA.
The time until the onset of respiratory distress-like symptom [collapse time (second)] was measured as a result of experimental asthma.

trachea = experiment: Passive Schultz-Dale reaction (broncho-dilatory effect) on isolated tracheal strips; details: Cavia porcellus; 50% relaxation of antigen (EWA, 1 µg/ml)-contracted tracheal strips of passively sensitized guinea pigs
Procedure: Guinea pigs were passively sensitized as follows. Hartley male guinea pigs weighing 350 to 500 g were injected intraperitoneally with rabbit anti-egg albumin (EWA) serum prepared by the method of Koda et al. [Folia pharmacol., Japon 66, 237, (1970)]. After 24 hours, the guinea pigs were stunned and exsanguinated, and then trachea was excised. The zig-zag strips of the trachea were prepared by the method of Emmerson and Mackay [J. Pharm. Pharmacol., 31, 798, (1979)]. The strips were suspended in Krebs-Henseleit solution at 37°C under aeration of a mixed gas of 95% oxygen and 5% carbon dioxide, and incubated for one hour. Antigen (EWA) was then introduced in the solution (final concentration; 1 µg/ml), and the contraction was measured by isotonictransducer (TD-112s, made by Nihon Kohden K.K., Japan) and recorded on a recorder (Type 3066, made by Yokogawa-Hokushin Denki, K.K. Japan). After the contraction curves reached plateau the compounds were successively added in order to get cumulative concentration-relaxation curves. Concentration of 50% relaxation rate (IC50) was calculated from the regression line, which was obtained from cumulative concentration-relaxation curves.

Wistar male rats = experiment: Diuretic activity; format: in vivo; details: Rattus norvegicus, po, 25 mg/kg orally, urine taken for 6 hours
Procedure: Wistar male rats weighing 150 to 300 g were used after fasting for 18 hours. […] The test was performed using 3 groups per test compound, and each group consists of 3 animals. The urine was metered by a measuring cylinder and electrolytes (Na^+ and K^+) in the urine were analyzed by flame photometer (model […]: Hitachi Ltd.). Parameters in Table 3 are represented by relative value for control.

male dd-mice = experiment: Acute toxicity; format: in vivo; details: Minimum lethal dose, oral, mortality observed for seven days
Procedure: The compounds were orally administrated to male dd-mice weighing 20 ± 1 g. Minimum lethal dose (MLD) was determined by observing the mortality for seven days after the administration.

male dd mice = experiment: Inhibition of platelet activating factor (PAF)-induced mortality; format: in vivo; details: Mus musculus, minimum effective dose, oral, 1 hour before 40 µg/kg PAF i.v., mortality 2 hours after PAF, read-out: PAF-induced mortality MED
Procedure: The experiment was performed by a minor modification of method of Carlson et al. [Agents and Actions, 21, 379 (1987)]. Groups each consisting of 10 male dd mice (weighing 28 to 32 g) were used, and 100 mg/kg of test compound or a saline (control) was orally administrated. One hour after the administration of test compound, 40 µg/kg of PAF (manufactured by Avanti Polar Lipids Co., Ltd.) was intravenously administered. Two hours after PAF injection, the mortality rate of the animals was observed. […]

mice = experiment: Scopolamine-induced amnesia, step through passive avoidance; format: in vivo; details: scopolamine 0.5 mg/kg i.p., mean ± S.E.M., controls 40.9±8.1 (Compound 41), 37.0±6.2 (Compound 51)
Procedure: Acquisition trial was performed in a manner similar to Experiment (f). Amnestic treatment was performed by intraperitoneal administration of scopolamine (0.5 mg/kg), 30 minutes prior to the acquisition trial. The test trial was performed 24 hours after the acquisition trial and its latency was determined as in Experiment (f).
Preparation of administrated test compound was performed in a manner similar to Experiment (f). Test compound and the saline were orally administered 60 minutes before the acquisition trial, respectively.

[1] = relative value for control (1.00), read-out: Na^+/K^+
[2] = relative value for control (100), read-out: Excretion of K^+
[3] = relative value for control (100), read-out: Excretion of Na^+
[4] = relative value for control (100), read-out: Urine volume

CCCn1c(=O)n2c(-c3ccncc3)nnc2c2c1ncn2C [Compound 3, 6,9-Dihydro-9-methyl-6-n-propyl-3-(4-pyridyl)-5H-1,2,4-triazolo[3,4-i]purin-5-one]
Experimental asthma Collapse time (Hartley male guinea pigs; 50 mg/kg orally): 422 ± 130 s | IC50 (trachea): 0.032 µM | response vs control in vivo at 25 mg/kg (Wistar male rats; [1]): 109% | response vs control in vivo at 25 mg/kg (Wistar male rats; [2]): 196% | response vs control in vivo at 25 mg/kg (Wistar male rats; [3]): 224% | response vs control in vivo at 25 mg/kg (Wistar male rats; [4]): 274% | MLD (male dd-mice): 100 mg/kg

CCCn1c(=O)n2c(-c3cccnc3)nnc2c2c1ncn2C [Compound 4, 6,9-Dihydro-9-methyl-6-n-propyl-3-(3-pyridyl)-5H-1,2,4-triazolo[3,4-i]purin-5-one]
Experimental asthma Collapse time (Hartley male guinea pigs; 50 mg/kg orally): 358 ± 65 s | IC50 (trachea): 7.7 µM | response vs control in vivo at 25 mg/kg (Wistar male rats; [1]): 125% | response vs control in vivo at 25 mg/kg (Wistar male rats; [2]): 134% | response vs control in vivo at 25 mg/kg (Wistar male rats; [3]): 167% | response vs control in vivo at 25 mg/kg (Wistar male rats; [4]): 177% | MLD (male dd-mice): 200 mg/kg

CCCn1c(=O)n2c(-c3ccco3)nnc2c2c1ncn2C [Compound 5, 6,9-Dihydro-3-(2-furyl)-9-methyl-6-n-propyl-5H-1,2,4-triazolo[3,4-i]purin-5-one]
minimal effective dose (male dd mice): 100 mg/kg | IC50 (trachea): 0.7 µM | MLD (male dd-mice): >300 mg/kg

CCCn1c(=O)n2c(-c3ccoc3C)nnc2c2c1ncn2C [Compound 6, 6,9-Dihydro-9-methyl-3-(2-methyl-3-furyl)-6-n-propyl-5H-1,2,4-triazolo[3,4-i]purin-5-one]
minimal effective dose (male dd mice): 100 mg/kg | response vs control in vivo at 25 mg/kg (Wistar male rats; [1]): 164% | response vs control in vivo at 25 mg/kg (Wistar male rats; [2]): 146% | response vs control in vivo at 25 mg/kg (Wistar male rats; [3]): 240% | response vs control in vivo at 25 mg/kg (Wistar male rats; [4]): 223% | MLD (male dd-mice): 200 mg/kg

CCCn1c(=O)n2c(-c3cccc(OC)c3)nnc2c2c1ncn2C [Compound 8, 6,9-Dihydro-3-(3-methoxyphenyl)-9-methyl-6-n-propyl-5H-1,2,4-triazolo[3,4-i]purin-5-one]
IC50 (trachea): 5.6 µM | response vs control in vivo at 25 mg/kg (Wistar male rats; [1]): 144% | response vs control in vivo at 25 mg/kg (Wistar male rats; [2]): 122% | response vs control in vivo at 25 mg/kg (Wistar male rats; [3]): 175% | response vs control in vivo at 25 mg/kg (Wistar male rats; [4]): 170% | MLD (male dd-mice): >300 mg/kg

CCCn1c(=O)n2c(-c3ccc(OC)cc3)nnc2c2c1ncn2C [Compound 9, 6,9-Dihydro-3-(4-methoxyphenyl)-9-methyl-6-n-propyl-5H-1,2,4-triazolo[3,4-i]purin-5-one]
IC50 (trachea): 7.8 µM | response vs control in vivo at 25 mg/kg (Wistar male rats; [1]): 157% | response vs control in vivo at 25 mg/kg (Wistar male rats; [2]): 139% | response vs control in vivo at 25 mg/kg (Wistar male rats; [3]): 219% | response vs control in vivo at 25 mg/kg (Wistar male rats; [4]): 253% | MLD (male dd-mice): >300 mg/kg

CCCn1c(=O)n2c(-c3ccccc3Cl)nnc2c2c1ncn2C [Compound 10, 3-(2-Chlorophenyl)-6,9-dihydro-9-methyl-6-n-propyl-5H-1,2,4-triazolo[3,4-i]purin-5-one]
IC50 (trachea): 18 µM | response vs control in vivo at 25 mg/kg (Wistar male rats; [1]): 124% | response vs control in vivo at 25 mg/kg (Wistar male rats; [2]): 109% | response vs control in vivo at 25 mg/kg (Wistar male rats; [3]): 134% | response vs control in vivo at 25 mg/kg (Wistar male rats; [4]): 162% | MLD (male dd-mice): 300 mg/kg

CCCn1c(=O)n2c(-c3cccc(Cl)c3)nnc2c2c1ncn2C [Compound 11, 3-(3-Chlorophenyl)-6,9-dihydro-9-methyl-6-n-propyl-5H-1,2,4-triazolo[3,4-i]purin-5-one]
minimal effective dose (male dd mice): 100 mg/kg | IC50 (trachea): > 40 µM | response vs control in vivo at 25 mg/kg (Wistar male rats; [1]): 226% | response vs control in vivo at 25 mg/kg (Wistar male rats; [2]): 134% | response vs control in vivo at 25 mg/kg (Wistar male rats; [3]): 302% | response vs control in vivo at 25 mg/kg (Wistar male rats; [4]): 255% | MLD (male dd-mice): >300 mg/kg

CCCn1c(=O)n2c(-c3ccc(Cl)cc3)nnc2c2c1ncn2C [Compound 12, 3-(4-Chlorophenyl)-6,9-dihydro-9-methyl-6-n-propyl-5H-1,2,4-triazolo[3,4-i]purin-5-one]
minimal effective dose (male dd mice): 100 mg/kg | Experimental asthma Collapse time (Hartley male guinea pigs; 5 mg/kg orally): 399 ± 55 s | IC50 (trachea): 26 µM | response vs control in vivo at 25 mg/kg (Wistar male rats; [1]): 142% | response vs control in vivo at 25 mg/kg (Wistar male rats; [2]): 129% | response vs control in vivo at 25 mg/kg (Wistar male rats; [3]): 183% | response vs control in vivo at 25 mg/kg (Wistar male rats; [4]): 198% | MLD (male dd-mice): >300 mg/kg

CCCn1c(=O)n2c(C)nnc2c2c1ncn2C [Compound 24, 6,9-Dihydro-3,9-dimethyl-6-n-propyl-5H-1,2,4-triazolo-[3,4-i]purin-5-one]
minimal effective dose (male dd mice): 100 mg/kg | response vs control in vivo at 25 mg/kg (Wistar male rats; [1]): 123% | response vs control in vivo at 25 mg/kg (Wistar male rats; [2]): 168% | response vs control in vivo at 25 mg/kg (Wistar male rats; [3]): 148% | response vs control in vivo at 25 mg/kg (Wistar male rats; [4]): 160% | MLD (male dd-mice): 300 mg/kg

CCCn1c(=O)n2c(C)nnc2c2[nH]cnc21 [Compound 25, 6,9-Dihydro-3-methyl-6-n-propyl-5H-1,2,4-triazolo[3,4-i]-purin-5-one]
minimal effective dose (male dd mice): 100 mg/kg | Experimental asthma Collapse time (Hartley male guinea pigs; 50 mg/kg orally): 590 ± 9.8 s | IC50 (trachea): 0.42 µM | response vs control in vivo at 25 mg/kg (Wistar male rats; [1]): 163% | response vs control in vivo at 25 mg/kg (Wistar male rats; [2]): 119% | response vs control in vivo at 25 mg/kg (Wistar male rats; [3]): 193% | response vs control in vivo at 25 mg/kg (Wistar male rats; [4]): 161% | MLD (male dd-mice): 100 mg/kg

CCCn1c(=O)n2c(-c3ccccc3)nnc2c2[nH]cnc21 [Compound 30, 6,9-Dihydro-3-phenyl-6-n-propyl-5H-1,2,4-triazolo[3,4-i]purin-5-one]
minimal effective dose (male dd mice): 10 mg/kg | IC50 (trachea): 0.76 µM | response vs control in vivo at 25 mg/kg (Wistar male rats; [1]): 177% | response vs control in vivo at 25 mg/kg (Wistar male rats; [2]): 124% | response vs control in vivo at 25 mg/kg (Wistar male rats; [3]): 220% | response vs control in vivo at 25 mg/kg (Wistar male rats; [4]): 204% | MLD (male dd-mice): 300 mg/kg

CCCn1cnc2c1c1n[nH]c(=O)n1c(=O)n2CCC [Compound 44, 6,9-Di-n-propyl-2,5,6,9-tetrahydro-3H-1,2,4-triazolo[3,4-i]purin-3,5-dione]
IC50 (trachea): 39.6 µM | response vs control in vivo at 25 mg/kg (Wistar male rats; [1]): 111% | response vs control in vivo at 25 mg/kg (Wistar male rats; [2]): 128% | response vs control in vivo at 25 mg/kg (Wistar male rats; [3]): 142% | response vs control in vivo at 25 mg/kg (Wistar male rats; [4]): 191% | MLD (male dd-mice): >300 mg/kg

CCCCn1c(=O)n2c(=O)[nH]nc2c2c1ncn2C [Compound 51, 6-n-Butyl-9-methyl-2,5,6,9-tetrahydro-3H-1,2,4-triazolo[3,4-i]purin-3,5-dione]
Latency of test trial (mice; 0.625 mg/kg orally 60 minutes before acquisition trial): 37.0 ± 11.2 s | Latency of test trial (mice; 2.5 mg/kg orally 60 minutes before acquisition trial): 69.5 ± 16.6 s | Latency of test trial (mice; 10 mg/kg orally 60 minutes before acquisition trial): 139.9 ± 45.1 s | Latency of test trial (mice; 40 mg/kg orally 60 minutes before acquisition trial): 166.3 ± 49.9 s | response vs control in vivo at 25 mg/kg (Wistar male rats; [1]): 100% | response vs control in vivo at 25 mg/kg (Wistar male rats; [2]): 152% | response vs control in vivo at 25 mg/kg (Wistar male rats; [3]): 152% | response vs control in vivo at 25 mg/kg (Wistar male rats; [4]): 200% | MLD (male dd-mice): >300 mg/kg

Cn1c(=O)c2[nH]cnc2n(C)c1=O [Theophylline, reference compound]
minimal effective dose (male dd mice): 100 mg/kg | Experimental asthma Collapse time (Hartley male guinea pigs; 50 mg/kg orally): 414 ± 47 s | IC50 (trachea): 23 µM
